Some results are limits rather than exact numbers.

The text below walks through data of US11731986B2 (Sanford Burnham Prebys Medical Discovery Institute, priority 2017, dated 2023).

The target in the test is T1, human LMPTP-A (Homo sapiens, UniProt P24666).
T1 sequence (P24666 1-158): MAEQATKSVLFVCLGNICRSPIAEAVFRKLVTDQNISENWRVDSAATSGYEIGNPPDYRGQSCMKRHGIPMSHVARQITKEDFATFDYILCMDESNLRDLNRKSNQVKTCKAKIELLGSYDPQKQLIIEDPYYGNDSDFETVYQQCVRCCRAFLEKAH
Kind of test: Enzyme Assay of Inhibition of LMPTP-A (phosphatase assay, OMFP or pNPP substrate). To be noted: Bis-Tris pH 6.0, 37° C. Type of test: biochemical. The method, then: Phosphatase assays were performed in buffer containing 50 mM Bis-Tris, pH 6.0, 1 mM DTT and 0.01% Triton X-100 at 37° C. For assays conducted with 3-O-methylfluorescein phosphate (OMFP) as substrate, fluorescence was monitored continuously at λex=485 and λem=525 nm. For assays conducted with para-nitrophenylphosphate (pNPP) as substrate, the reaction was stopped by addition of 2× reaction volume of 1 M NaOH, and absorbance was measured at 405 nm. IC50 values of compounds of Formula (I), (II), (III), or (IV) were determined from plots of inhibitor concentration versus percentage of enzyme activity. For inhibitor selectivity assays, each PTP was incubated with either 0.4 mM OMFP or 5 mM pNPP in the presence of 40 μM compound or DMSO. […] For the inhibitor reversibility assay, 50 nM human LMPTP-A was pre-incubated with 10 μM of compound of Formula (I), (II), (III), or (IV) or DMSO for 5 min. The enzyme was diluted 100× in phosphatase assay buffer containing 0.4 mM OMFP and fluorescence was measured at the indicated time points.

One may read the IC50 as the point on the concentration scale where inhibition reaches its midpoint. The low end stands for greater potency, the high end for weaker potency. For `CN1CCC(NC(=O)/C=C/c2ccc(-c3cc(NCCCN4CCCCC4)c4cnccc4n3)cc2)CC1` [(E)-N-(1-Methylpiperidin-4-yl)-3-(4-(4-(3-(piperidin-1-yl)propylamino)-1,6-naphthyridin-2-yl)phenyl)acrylamide], the IC50 was not above 1000 nM.

Consider `CN1CCC(NC(=O)/C=C/c2ccc(-c3cc(NCCCN4CCCCC4)c4cnccc4n3)s2)CC1` [(E)-N-(1-Methylpiperidin-4-yl)-3-(5-(4-(3-(piperidin-1-yl)propylamino)-1,6-naphthyridin-2-yl)thiophen-2-yl)acrylamide], for which the IC50 was 1000 to 20000 nM. Next, `CN1CCC(NC(=O)/C=C/c2ccc(-c3cc(NCCCN4CCCCC4)c4cnccc4n3)o2)CC1` [(E)-N-(1-Methylpiperidin-4-yl)-3-(5-(4-((3-(piperidin-1-yl)propyl)amino)-1,6-naphthyridin-2-yl)furan-2-yl)acrylamide]: not below 20000 nM.

In turn, `CN1CCC(CCNC(=O)/C=C/c2ccc(-c3cc(NCCCN4CCCCC4)c4cnccc4n3)cc2)CC1` [(E)-N-(2-(1-Methylpiperidin-4-yl)ethyl)-3-(4-(4-(3-(piperidin-1-yl)propylamino)-1,6-naphthyridin-2-yl)phenyl)acrylamide] had an IC50 not above 1000 nM. As for `CN1CCC(CCNC(=O)/C=C/c2ccc(-c3cc(NCCCN4CCCCC4)c4cnccc4n3)o2)CC1` [(E)-N-(2-(1-Methylpiperidin-4-yl)ethyl)-3-(5-(4-((3-(piperidin-1-yl)propyl)amino)-1,6-naphthyridin-2-yl)furan-2-yl)acrylamide], the figure is 1000 to 20000 nM; as for `CN1CCCN(CCNC(=O)/C=C/c2ccc(-c3cc(NCCCN4CCCCC4)c4cnccc4n3)cc2)CC1` [(E)-N-(2-(4-Methyl-1,4-diazepan-1-yl)ethyl)-3-(4-(4-(3-(piperidin-1-yl)propylamino)-1,6-naphthyridin-2-yl)phenyl)acrylamide], not above 1000 nM; as for `CN(C)CCNC(=O)/C=C/c1ccc(-c2cc(NCCCN3CCCCC3)c3cnccc3n2)cc1` [(E)-N-(2-(Dimethylamino)ethyl)-3-(4-(4-(3-(piperidin-1-yl)propylamino)-1,6-naphthyridin-2-yl)phenyl)acrylamide], not above 1000 nM. As for `O=C(/C=C/c1ccc(-c2cc(NCCCN3CCCCC3)c3cnccc3n2)cc1)NCCCN1CCCCC1` [(E)-N-(3-(Piperidin-1-yl)propyl)-3-(4-(4-(3-(piperidin-1-yl)propylamino)-1,6-naphthyridin-2-yl)phenyl)acrylamide], the figure is not above 1000 nM; as for `CCN1CCC(CNC(=O)/C=C/c2ccc(-c3cc(NCCCN4CCCCC4)c4cnccc4n3)cc2)CC1` [(E)-N-((1-Ethylpiperidin-4-yl)methyl)-3-(4-(4-(3-(piperidin-1-yl)propylamino)-1,6-naphthyridin-2-yl)phenyl)acrylamide], 1000 to 20000 nM; as for `CN1CCC(CNC(=O)/C=C/c2ccc(-c3cc(NCCCN4CCCCC4)c4cnccc4n3)cc2)CC1` [(E)-N-((1-Methylpiperidin-4-yl)methyl)-3-(4-(4-(3-(piperidin-1-yl)propylamino)-1,6-naphthyridin-2-yl)phenyl)acrylamide], not above 1000 nM. Molecule `CN1CCC(N/C(=N\O)c2ccc(-c3cc(NCCCN4CCCCC4)c4cncc(Cl)c4n3)cc2)CC1` [(Z)-4-(8-chloro-4-((3-(piperidin-1-yl)propyl)amino)-1,6-naphthyridin-2-yl)-N′-hydroxy-N-(1-methylpiperidin-4-yl)benzimidamide] registered an IC50 not below 20000 nM. As for `CO/N=C(\NC1CCN(C)CC1)c1ccc(-c2cc(NCCCN3CCCCC3)c3cnccc3n2)cc1` [(Z)-N′-methoxy-N-(1-methylpiperidin-4-yl)-4-(4-(3-(piperidin-1-yl)propylamino)-1,6-naphthyridin-2-yl)benzimidamide], the figure is not above 1000 nM; as for `O=C(c1nc2ccc(-c3cc(NCCCN4CCCCC4)c4cnccc4n3)cc2s1)N1CCOCC1` [Morpholino(6-(4-(3-(piperidin-1-yl)propylamino)-1,6-naphthyridin-2-yl)benzo[d]thiazol-2-yl)methanone], 1000 to 20000 nM.
